What was measured:
[1] = Shake-flask solubility of acetaminophen in aqueous protic ionic liquid solutions (UV-vis at 243 nm); assay type: physicochemical
Protocol: The experimental solubility results were determined using a variety of techniques, including the shake-flask method. Aqueous binary mixtures based on PILs have been made utilizing an analytical balance with a 10^–4 g precision for determining the solubility results. Glass vials with a specific amount of water + PILs were filled with the extra acetaminophen. Following that, the samples were combined for 3 h and left for three days in a water bath thermostat (ED, Julabo Co., Germany) with temperature control and an uncertainty of 0.01 K. To separate the liquid and solid phases, a Hettich D-7200 centrifuge was employed (with 4000 RPM at room temperature at 10 min). An ethanol + water solution was applied to dilute the liquid phase after the saturated solutions were filtered through a […] PTFE filter. Subsequently, the drug concentration in the solutions was ascertained using a calibration curve and a UV–vis spectrometer at 243 nm.

[2] = 298.15 K, methanol + water, 0.1 methanol weight fraction; cited from earlier work

- solubility 10^5x1^exp ([1]; water+[DEA]La w3=0.0000 298.15 K 866 hPa): 1.839 mole fraction x10^5
- solubility 10^5x1^exp ([1]; water+[DEA]La w3=0.0000 303.15 K 866 hPa): 2.239 mole fraction x10^5
- solubility 10^5x1^exp ([1]; water+[DEA]La w3=0.0000 308.15 K 866 hPa): 2.545 mole fraction x10^5
- solubility 10^5x1^exp ([1]; water+[DEA]La w3=0.0000 313.15 K 866 hPa): 3.009 mole fraction x10^5
- solubility 10^5x1^exp ([1]; water+[DEA]La w3=0.0200 298.15 K 866 hPa): 2.492 mole fraction x10^5
- solubility 10^5x1^exp ([1]; water+[DEA]La w3=0.0200 303.15 K 866 hPa): 3.159 mole fraction x10^5
- solubility 10^5x1^exp ([1]; water+[DEA]La w3=0.0200 308.15 K 866 hPa): 3.555 mole fraction x10^5
- solubility 10^5x1^exp ([1]; water+[DEA]La w3=0.0200 313.15 K 866 hPa): 3.722 mole fraction x10^5
- solubility 10^5x1^exp ([1]; water+[DEA]La w3=0.0500 298.15 K 866 hPa): 3.181 mole fraction x10^5
- solubility 10^5x1^exp ([1]; water+[DEA]La w3=0.0500 303.15 K 866 hPa): 3.576 mole fraction x10^5
- solubility 10^5x1^exp ([1]; water+[DEA]La w3=0.0500 308.15 K 866 hPa): 3.917 mole fraction x10^5
- solubility 10^5x1^exp ([1]; water+[DEA]La w3=0.0500 313.15 K 866 hPa): 4.227 mole fraction x10^5
- solubility 10^5x1^exp ([1]; water+[DEA]La w3=0.0700 298.15 K 866 hPa): 3.452 mole fraction x10^5
- solubility 10^5x1^exp ([1]; water+[DEA]La w3=0.0700 303.15 K 866 hPa): 3.977 mole fraction x10^5
- solubility 10^5x1^exp ([1]; water+[DEA]La w3=0.0700 308.15 K 866 hPa): 4.167 mole fraction x10^5
- solubility 10^5x1^exp ([1]; water+[DEA]La w3=0.0700 313.15 K 866 hPa): 4.514 mole fraction x10^5
- solubility 10^5x1^exp ([1]; water+[DEA]La w3=0.1000 298.15 K 866 hPa): 3.849 mole fraction x10^5
- solubility 10^5x1^exp ([1]; water+[DEA]La w3=0.1000 303.15 K 866 hPa): 4.220 mole fraction x10^5
- solubility 10^5x1^exp ([1]; water+[DEA]La w3=0.1000 308.15 K 866 hPa): 4.793 mole fraction x10^5
- solubility 10^5x1^exp ([1]; water+[DEA]La w3=0.1000 313.15 K 866 hPa): 5.266 mole fraction x10^5
- solubility 10^5x1^exp ([1]; water+[DEA]La w3=0.1500 298.15 K 866 hPa): 4.290 mole fraction x10^5
- solubility 10^5x1^exp ([1]; water+[DEA]La w3=0.1500 303.15 K 866 hPa): 4.611 mole fraction x10^5
- solubility 10^5x1^exp ([1]; water+[DEA]La w3=0.1500 308.15 K 866 hPa): 5.038 mole fraction x10^5
- solubility 10^5x1^exp ([1]; water+[DEA]La w3=0.1500 313.15 K 866 hPa): 5.633 mole fraction x10^5
- solubility 10^5x1^exp ([1]; water+[DEA]La w3=0.2000 298.15 K 866 hPa): 4.669 mole fraction x10^5
- solubility 10^5x1^exp ([1]; water+[DEA]La w3=0.2000 303.15 K 866 hPa): 5.223 mole fraction x10^5
- solubility 10^5x1^exp ([1]; water+[DEA]La w3=0.2000 308.15 K 866 hPa): 5.710 mole fraction x10^5
- solubility 10^5x1^exp ([1]; water+[DEA]La w3=0.2000 313.15 K 866 hPa): 6.188 mole fraction x10^5
- solubility 10^5x1^exp ([1]; water+[MEA]La w3=0.0000 298.15 K 866 hPa): 1.839 mole fraction x10^5
- solubility 10^5x1^exp ([1]; water+[MEA]La w3=0.0000 303.15 K 866 hPa): 2.239 mole fraction x10^5
- solubility 10^5x1^exp ([1]; water+[MEA]La w3=0.0000 308.15 K 866 hPa): 2.545 mole fraction x10^5
- solubility 10^5x1^exp ([1]; water+[MEA]La w3=0.0000 313.15 K 866 hPa): 3.009 mole fraction x10^5
- solubility 10^5x1^exp ([1]; water+[MEA]La w3=0.0200 298.15 K 866 hPa): 2.750 mole fraction x10^5
- solubility 10^5x1^exp ([1]; water+[MEA]La w3=0.0200 303.15 K 866 hPa): 3.417 mole fraction x10^5
- solubility 10^5x1^exp ([1]; water+[MEA]La w3=0.0200 308.15 K 866 hPa): 3.802 mole fraction x10^5
- solubility 10^5x1^exp ([1]; water+[MEA]La w3=0.0200 313.15 K 866 hPa): 4.007 mole fraction x10^5
- solubility 10^5x1^exp ([1]; water+[MEA]La w3=0.0500 298.15 K 866 hPa): 3.256 mole fraction x10^5
- solubility 10^5x1^exp ([1]; water+[MEA]La w3=0.0500 303.15 K 866 hPa): 3.861 mole fraction x10^5
- solubility 10^5x1^exp ([1]; water+[MEA]La w3=0.0500 308.15 K 866 hPa): 4.055 mole fraction x10^5
- solubility 10^5x1^exp ([1]; water+[MEA]La w3=0.0500 313.15 K 866 hPa): 4.320 mole fraction x10^5
- solubility 10^5x1^exp ([1]; water+[MEA]La w3=0.0700 298.15 K 866 hPa): 3.884 mole fraction x10^5
- solubility 10^5x1^exp ([1]; water+[MEA]La w3=0.0700 303.15 K 866 hPa): 4.588 mole fraction x10^5
- solubility 10^5x1^exp ([1]; water+[MEA]La w3=0.0700 308.15 K 866 hPa): 4.675 mole fraction x10^5
- solubility 10^5x1^exp ([1]; water+[MEA]La w3=0.0700 313.15 K 866 hPa): 5.025 mole fraction x10^5
- solubility 10^5x1^exp ([1]; water+[MEA]La w3=0.1000 298.15 K 866 hPa): 4.380 mole fraction x10^5
- solubility 10^5x1^exp ([1]; water+[MEA]La w3=0.1000 303.15 K 866 hPa): 4.807 mole fraction x10^5
- solubility 10^5x1^exp ([1]; water+[MEA]La w3=0.1000 308.15 K 866 hPa): 5.407 mole fraction x10^5
- solubility 10^5x1^exp ([1]; water+[MEA]La w3=0.1000 313.15 K 866 hPa): 5.600 mole fraction x10^5
- solubility 10^5x1^exp ([1]; water+[MEA]La w3=0.1500 298.15 K 866 hPa): 4.962 mole fraction x10^5
- solubility 10^5x1^exp ([1]; water+[MEA]La w3=0.1500 303.15 K 866 hPa): 5.658 mole fraction x10^5
- solubility 10^5x1^exp ([1]; water+[MEA]La w3=0.1500 308.15 K 866 hPa): 6.128 mole fraction x10^5
- solubility 10^5x1^exp ([1]; water+[MEA]La w3=0.1500 313.15 K 866 hPa): 6.665 mole fraction x10^5
- solubility 10^5x1^exp ([1]; water+[MEA]La w3=0.2000 298.15 K 866 hPa): 5.589 mole fraction x10^5
- solubility 10^5x1^exp ([1]; water+[MEA]La w3=0.2000 303.15 K 866 hPa): 6.123 mole fraction x10^5
- solubility 10^5x1^exp ([1]; water+[MEA]La w3=0.2000 308.15 K 866 hPa): 6.695 mole fraction x10^5
- solubility 10^5x1^exp ([1]; water+[MEA]La w3=0.2000 313.15 K 866 hPa): 7.337 mole fraction x10^5
- solubility 10^5x1^exp ([1]; water+[TEA]La w3=0.0000 298.15 K 866 hPa): 1.839 mole fraction x10^5
- solubility 10^5x1^exp ([1]; water+[TEA]La w3=0.0000 303.15 K 866 hPa): 2.239 mole fraction x10^5
- solubility 10^5x1^exp ([1]; water+[TEA]La w3=0.0000 308.15 K 866 hPa): 2.545 mole fraction x10^5
- solubility 10^5x1^exp ([1]; water+[TEA]La w3=0.0000 313.15 K 866 hPa): 3.009 mole fraction x10^5
- solubility 10^5x1^exp ([1]; water+[TEA]La w3=0.0200 298.15 K 866 hPa): 2.161 mole fraction x10^5
- solubility 10^5x1^exp ([1]; water+[TEA]La w3=0.0200 303.15 K 866 hPa): 2.632 mole fraction x10^5
- solubility 10^5x1^exp ([1]; water+[TEA]La w3=0.0200 308.15 K 866 hPa): 2.940 mole fraction x10^5
- solubility 10^5x1^exp ([1]; water+[TEA]La w3=0.0200 313.15 K 866 hPa): 3.334 mole fraction x10^5
- solubility 10^5x1^exp ([1]; water+[TEA]La w3=0.0500 298.15 K 866 hPa): 2.597 mole fraction x10^5
- solubility 10^5x1^exp ([1]; water+[TEA]La w3=0.0500 303.15 K 866 hPa): 2.944 mole fraction x10^5
- solubility 10^5x1^exp ([1]; water+[TEA]La w3=0.0500 308.15 K 866 hPa): 3.210 mole fraction x10^5
- solubility 10^5x1^exp ([1]; water+[TEA]La w3=0.0500 313.15 K 866 hPa): 3.521 mole fraction x10^5
- solubility 10^5x1^exp ([1]; water+[TEA]La w3=0.0700 298.15 K 866 hPa): 2.908 mole fraction x10^5
- solubility 10^5x1^exp ([1]; water+[TEA]La w3=0.0700 303.15 K 866 hPa): 3.461 mole fraction x10^5
- solubility 10^5x1^exp ([1]; water+[TEA]La w3=0.0700 308.15 K 866 hPa): 3.584 mole fraction x10^5
- solubility 10^5x1^exp ([1]; water+[TEA]La w3=0.0700 313.15 K 866 hPa): 3.929 mole fraction x10^5
- solubility 10^5x1^exp ([1]; water+[TEA]La w3=0.1000 298.15 K 866 hPa): 3.094 mole fraction x10^5
- solubility 10^5x1^exp ([1]; water+[TEA]La w3=0.1000 303.15 K 866 hPa): 3.834 mole fraction x10^5
- solubility 10^5x1^exp ([1]; water+[TEA]La w3=0.1000 308.15 K 866 hPa): 4.208 mole fraction x10^5
- solubility 10^5x1^exp ([1]; water+[TEA]La w3=0.1000 313.15 K 866 hPa): 4.349 mole fraction x10^5
- solubility 10^5x1^exp ([1]; water+[TEA]La w3=0.1500 298.15 K 866 hPa): 3.958 mole fraction x10^5
- solubility 10^5x1^exp ([1]; water+[TEA]La w3=0.1500 303.15 K 866 hPa): 4.151 mole fraction x10^5
- solubility 10^5x1^exp ([1]; water+[TEA]La w3=0.1500 308.15 K 866 hPa): 4.940 mole fraction x10^5
- solubility 10^5x1^exp ([1]; water+[TEA]La w3=0.1500 313.15 K 866 hPa): 5.167 mole fraction x10^5
- solubility 10^5x1^exp ([1]; water+[TEA]La w3=0.2000 298.15 K 866 hPa): 4.309 mole fraction x10^5
- solubility 10^5x1^exp ([1]; water+[TEA]La w3=0.2000 303.15 K 866 hPa): 4.778 mole fraction x10^5
- solubility 10^5x1^exp ([1]; water+[TEA]La w3=0.2000 308.15 K 866 hPa): 5.362 mole fraction x10^5
- solubility 10^5x1^exp ([1]; water+[TEA]La w3=0.2000 313.15 K 866 hPa): 5.751 mole fraction x10^5
Structure (SMILES): CC(=O)Nc1ccc(O)cc1 [ACP, Acetaminophen]
- ACP solubility [2]: 2.65 × 10^–3 mole fraction

— PMC11270923 (BMC Chemistry, 2024)
